{"source": "patent US20260041677A1", "about": "“COMPOSITIONS AND METHODS FOR TREATING ADENOID CYSTIC CARCINOMA” (ELEVAR THERAPEUTICS, INC., priority 2022, published 2026)", "key": {"[1]": {"test_system": "recurrent or metastatic (R/M) adenoid cystic carcinoma (ACC)", "experiment": "Phase 2 study of rivoceranib in R/M ACC: response, PFS, TTP per CHOI response criteria by BIRC", "type": "in vivo, human", "settings": "for Complete Response / DoR 25th percentile / DoR 75th percentile / DoR Median / Partial Response / Progressive Disease / Stable Disease / DCR (disease control rate): BIRC", "source_text": "Objectives: Primary objectives were to evaluate safety & tolerability, efficacy by objective response rate (ORR), best overall response (BOR), time to response, duration of response, disease control rate, and duration of disease control. Secondary objectives were to evaluate efficacy as measured by overall survival, progression-free survival and event-free survival. The primary efficacy endpoint was the ORR, defined as the proportion of patients who achieved confirmed complete response (CR) or partial response (PR) per Response Evaluation Criteria in Solid Tumors (RECIST) Version 1.1 (V1.1). The secondary efficacy endpoints were duration of response (DoR) assessed by the investigator and a blinded independent review committee (BIRC), progression-free survival (PFS) assessed at 6 months, 12 months, and 2 years by investigator and BIRC, Time to Progression (TTP) assessed by investigator and BIRC, and overall survival (OS) assessed at 1 and 2 years. Exploratory efficacy endpoints include ORR per CHOI response criteria (based on the journal article, Choi et al., Correlation of computed tomography and positron emission tomography in patients with metastatic gastrointestinal stromal tumor treated at a single institution with imatinib mesylate: proposal of new computed tomography response criteria. J Clin Oncol. 2007; 25(13): 1753-1759) by a blinded independent review […] (BIRC) and disease control rate (DCR) per RECIST V1.1 by Investigator and BIRC. Except for CHOI response criteria, all response endpoints were assessed per RECIST V1.1 by Investigator and BIRC.\nEndpoint of Response per CHOI response Criteria: CHOI response criteria assesses response based on change in tumor density as well as change in tumor size and have been most often used to assess response to treatment with tyrosine kinase inhibitors such as imatinib in gastrointestinal stromal tumors (GIST) where RECIST criteria underestimate response. Evaluation of response per CHOI response criteria by BIRC was added to the protocol for exploratory analysis because Investigators observed decreases in tumor density on treatment with rivoceranib without changes in tumor lesion diameters. Changes in tumor density had not been reported with other treatments investigated for R/M ACC.\nObjective response rate (ORR), duration of response (DOR) and disease control rate (DCR) in the efficacy evaluable population per CHOI response criteria (using the same data set as used for analyses per RECIST V1.1): Assessment of response per CHOI response criteria required a subject have contrast-enhanced CT scan as the imaging modality for assessment of tumor density at baseline and post-baseline time points. Therefore, fewer subjects were efficacy evaluable per CHOI response criteria (N=60) than per RECIST V1.1 criteria (N=73). […] This is >4-fold higher than the ORR of 9.6% per RECIST V1.1 reported by BIRC. […] Median DOR per CHOI response criteria was 14.8 months, which was two-fold higher than that reported per RECIST V1.1-7.2 months reported by BIRC."}, "R/M ACC": {"test_system": "R/M ACC", "settings": "RECIST V1.1; 500 mg QD; 68 patients, head and neck R/M ACC; cited from earlier work"}, "[2]": {"settings": "CHOI criteria, Total N = 60, 700 mg QD start"}, "[3]": {"settings": "CHOI criteria, VEGFRi-naïve N = 48, 700 mg QD start"}, "[4]": {"settings": "CHOI criteria, VEGFRi-treated N = 12, 700 mg QD start"}, "[5]": {"settings": "CHOI criteria, efficacy evaluable population, 700 mg QD start"}}, "data": [{"smiles": "N#CC1(c2ccc(NC(=O)c3cccnc3NCc3ccncc3)cc2)CCCC1", "note": "[Rivoceranib, N-[4-(1-cyanocyclopentyl)phenyl]-2-{[(pyridin-4-yl)methyl]amino}pyridine-3-carboxamide]", "values": [{"measurement": "ORR per CHOI criteria relative to ORR per RECIST V1.1 by BIRC", "setting": "[1]; 51.7% vs 9.6%", "result": "> 4", "unit": "fold"}, {"measurement": "Complete Response", "setting": "[1]; [2]", "result": 0, "unit": "%"}, {"measurement": "DoR 25th percentile", "setting": "[1]; [2]", "result": 7.2, "unit": "months"}, {"measurement": "DoR 75th percentile", "setting": "[1]; [2]", "result": 20.2, "unit": "months"}, {"measurement": "DoR Median", "setting": "[1]; [2]", "result": 14.8, "unit": "months"}, {"measurement": "Partial Response", "setting": "[1]; [2]", "result": "(51.7) %"}, {"measurement": "Progressive Disease", "setting": "[1]; [2]", "result": "(6.7) %"}, {"measurement": "Stable Disease", "setting": "[1]; [2]", "result": "(41.7) %"}, {"measurement": "Complete Response", "setting": "[1]; [3]", "result": 0, "unit": "%"}, {"measurement": "DCR (disease control rate)", "setting": "[1]; [3]", "result": "(60.4) %"}, {"measurement": "DoR 25th percentile", "setting": "[1]; [3]", "result": 7.2, "unit": "months"}, {"measurement": "DoR 75th percentile", "setting": "[1]; [3]", "result": 20.2, "unit": "months"}, {"measurement": "DoR Median", "setting": "[1]; [3]", "result": 14.8, "unit": "months"}, {"measurement": "Partial Response", "setting": "[1]; [3]", "result": "(52.1) %"}, {"measurement": "Progressive Disease", "setting": "[1]; [3]", "result": "(6.3) %"}, {"measurement": "Stable Disease", "setting": "[1]; [3]", "result": "(41.7) %"}, {"measurement": "Complete Response", "setting": "[1]; [4]", "result": 0, "unit": "%"}, {"measurement": "DCR (disease control rate)", "setting": "[1]; [4]", "result": "(66.7) %"}, {"measurement": "DoR 25th percentile", "setting": "[1]; [4]", "result": 12.2, "unit": "months"}, {"measurement": "DoR Median", "setting": "[1]; [4]", "result": 12.2, "unit": "months"}, {"measurement": "Partial Response", "setting": "[1]; [4]", "result": "(50.0) %"}, {"measurement": "Progressive Disease", "setting": "[1]; [4]", "result": "(8.3) %"}, {"measurement": "Stable Disease", "setting": "[1]; [4]", "result": "(41.7) %"}, {"measurement": "Median TTP", "setting": "[1]; [5]", "result": 14.4, "unit": "months"}, {"measurement": "estimated PFS rate at 6 months", "setting": "[1]; [5]", "result": 80.4, "unit": "%"}, {"measurement": "estimated PFS rate at 9 months", "setting": "[1]; [5]", "result": 62.6, "unit": "%"}, {"measurement": "estimated PFS rate at 12 months", "setting": "[1]; [5]", "result": 53.8, "unit": "%"}, {"measurement": "estimated TTP rate at 6 months", "setting": "[1]; [5]", "result": 82, "unit": "%"}, {"measurement": "estimated TTP rate at 9 months", "setting": "[1]; [5]", "result": 67.7, "unit": "%"}, {"measurement": "estimated TTP rate at 12 months", "setting": "[1]; [5]", "result": 58.3, "unit": "%"}, {"measurement": "median PFS", "setting": "[1]; [5]", "result": 13.8, "unit": "months"}, {"measurement": "6-month PFS", "setting": "R/M ACC", "result": 92.3, "unit": "%"}, {"measurement": "ORR", "setting": "R/M ACC", "result": 46.2, "unit": "%"}, {"measurement": "median DOR", "setting": "R/M ACC", "result": 17.7, "unit": "months"}]}]}
